This note sets out measurements from patent US8354436B2 (4SC Discovery GmbH, priority 2011, dated 2013).

What all share (type): cell-based
Common to all, as to settings: 48 hours

In one assay the test system is IL-17AA. The assay can be described thus: IL-17AA production by PHA-stimulated human PBMC (human homodimer IL-17A ELISA). Here is the method:
Analysis of Proliferation of and Cytokine Production by Human PBMC Stimulated with PHA
Peripheral blood mononuclear cells (PBMC) from healthy human donors were purified using Accuspin™ System-Histopaque-1077 (Sigma) according to the protocol recommended by the manufacturer. Purified PBMC were then washed twice with phosphate-buffered saline (PBS) and resuspended in RPMI1640 culture medium supplemented with 10% dialyzed heat inactivated fetal calf serum, 1.5 mM L-glutamine, 100 U penicillin/ml, and […] (all from PAN Biotech, Aidenbach, Germany). For stimulation, PBMC were seeded at 1×10^5 cells/well, activated with 2 μg/ml phytohaemagglutinin (PHA, Sigma) and incubated with the test compounds for 48 hours. IL-17A, IL-17F and INF-γ were then determined in the culture supernatant using a Luminex BioPlex system, following the manufacturer's instructions (BioRad, Munich, Germany). For screening, compounds were used at 10, 1, 0.1 and 0.01 μM. To determine the IC50, compounds were titrated semilogarithmically.
Cytokines were determined in the aforementioned culture supernatant using the following methods: IL-17AA/AF was measured using the Luminex BioPlex system (BioRad, Munich, Germany); IL-17AA using the human homodimer IL-17A ELISA Ready Set Go Kit from eBioscience (Frankfurt, Germany); IL-17FF using the human IL-17F ELI-Pair from Hölzel DiagnosticaGmBH (Köln, Germany); and IFN-γ using the OptEIA human IFN-g ELISA from BD Bioscience (Heidelberg, Germany), all following the manufacturer's instructions.
On the technique in general: An ELISA detects its analyte on a solid surface through an enzyme-linked reagent.

The next assay relates to IL-17FF. The assay is described as follows: IL-17FF production by PHA-stimulated human PBMC (human IL-17F ELI-Pair). The procedure, abridged: (§1)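 Inhibition of PHA-driven (2 μg/ml) cytokine release from human PBMC at 1×10^5 cells/well, 48 h compound exposure. IC50 from semilog titrations.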
For another assay, the system named is IFN-γ. The assay can be described thus: IFN-γ production by PHA-stimulated human PBMC (OptEIA human IFN-g ELISA). A digest of the protocol: as §1
The subject of assay [1] is PBMC from healthy human donors. The assay is described as follows: T cell proliferation assay (PHA-stimulated human PBMC, BrdU ELISA). A digest of the protocol: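 Proliferation was quantified by BrdU ELISA 48 hours after starting culture of 1×10⁵ human PBMC per well with test compound and 2 μg/ml phytohaemagglutinin. Cells came from healthy donors via Ficoll separation and were kept in RPMI1640 with 10% dialysed heat-inactivated FCS.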
On the technique in general: Uptake of a labelled nucleoside into DNA is a usual measure of proliferation.

The mark [2] stands for this setting: human PBMC, 2 μg/ml PHA, read-out: A: IC50 (IL-17AA).
The mark [3] stands for this setting: human PBMC, 2 μg/ml PHA, read-out: B: IC50 (IL-17FF).
The mark [4] stands for this setting: human PBMC, 2 μg/ml PHA, read-out: C: IC50 (IFNγ).
Where [5] appears, read: human PBMC, 2 μg/ml PHA, read-out: D: IC50 (Tcell proliferation).
Setting [6] is: PHA-stimulated human PBMC, column A, values without *, read-out: IC50 (IL-17AA).
The mark [7] stands for this setting: PHA-stimulated human PBMC, column B, read-out: IC50 (IL-17FF).
Setting [8] is: PHA-stimulated human PBMC, column C, read-out: IC50 (IFNγ).
The mark [9] stands for this setting: PHA-stimulated human PBMC, column D, read-out: IC50 (Tcell proliferation).

Molecules are shown by their SMILES. Where two headings read alike, the source gives them in different places.

As for `Fc1cccc(Cl)c1-c1noc(-c2cnn(-c3cccc(Cl)c3)c2C(F)(F)F)c1-c1nccs1` [Example 5, 3-(2-chloro-6-fluorophenyl)-5-(1-(3-chlorophenyl)-5-(trifluoromethyl)-1H-pyrazol-4-yl)-4-(thiazol-2-yl)isoxazole], the IC50 (in the assay with IL-17AA (setting [2]); with IL-17FF (setting [3]); with IFN-γ (setting [4]); in assay [1] (setting [5])) was less than 0.01 µM each time.

As to `Cc1nnc(-c2c(-c3c(F)cccc3Cl)noc2-c2cnn(-c3ccccc3F)c2C(F)(F)F)s1` [Example 12, 3-(2-chloro-6-fluorophenyl)-5-(1-(2-fluorophenyl)-5-(trifluoromethyl)-1H-pyrazol-4-yl)-4-(5-methyl-1,3,4-thiadiazol-2-yl)isoxazole], the IC50 is 0.1 to 1 µM in the assay with IL-17AA (setting [2]), 0.01 to 0.1 µM in the assay on IL-17FF (setting [3]), 0.01 to 0.1 µM with IFN-γ (setting [4]) and 0.1 to 1 µM in assay [1] (setting [5]).

With `CNC(=O)c1c(-c2c(F)cccc2Cl)noc1-c1cnn(-c2ccc(F)cc2F)c1C(F)(F)F` [Example I-57, 3-(2-chloro-6-fluorophenyl)-5-(1-(2,4-difluorophenyl)-5-(trifluoromethyl)-1H-pyrazol-4-yl)-N-methylisoxazole-4-carboxamide], the IC50 (in the assay on IL-17AA (setting [6]); with IL-17FF (setting [7]); in the assay with IFN-γ (setting [8]); in assay [1] (setting [9])) was 1 to 10 µM in each case.

For `CON(C)C(=O)c1c(-c2c(F)cccc2Cl)noc1-c1cnn(-c2cccc(Cl)c2)c1C(F)(F)F` [Example I-63, 3-(2-chloro-6-fluorophenyl)-5-(1-(3-chlorophenyl)-5-(trifluoromethyl)-1H-pyrazol-4-yl)-N-methoxy-N-methylisoxazole-4-carboxamide], the IC50 in the assay with IL-17AA (setting [6]) fell in the range of 0.1 to 1 µM; in the assay with IL-17FF (setting [7]) it was 0.01 to 0.1 µM; in the assay with IFN-γ (setting [8]), 0.1 to 1 µM; in assay [1] (setting [9]) it was 0.1 to 1 µM.

Regarding `O=C(O)c1c(-c2ccccc2Cl)noc1-c1cnn(-c2cccc(Cl)c2)c1C(F)(F)F` [IB-42, 3-(2-chlorophenyl)-5-(1-(3-chlorophenyl)-5-(trifluoromethyl)-1H-pyrazol-4-yl)-isoxazole-4-carboxylic acid], the IC50 (in the assay on IL-17FF (setting [7]); in the assay with IFN-γ (setting [8]); in assay [1] (setting [9])) was 1 to 10 µM in each case.

Turning to `COC(=O)c1c(-c2c(F)cccc2Cl)noc1-c1cnn(C2CCS(=O)(=O)C2)c1C(F)(F)F` (stereo not shown) [Example I-103, methyl 3-(2-chloro-6-fluorophenyl)-5-(1-(3-hydrazinyltetrahy-drothiophene 1,1-dioxide)-5-(trifluoromethyl)-1H-pyrazol-4-yl)isoxazole-4-carboxylate], the IC50 (in the assay with IL-17FF (setting [7]); in the assay on IFN-γ (setting [8]); in assay [1] (setting [9])) was 0.1 to 1 µM in each case.

With `N#Cc1c(-c2c(F)cccc2Cl)noc1-c1cnn(-c2cccc(Cl)c2)c1C(F)(F)F` [Example I-49, 3-(2-chloro-6-fluorophenyl)-5-(1-(3-chlorophenyl)-5-(trifluoromethyl)-1H-pyrazol-4-yl)isoxazole-4-carbonitrile], the IC50 (in the assay on IL-17FF (setting [7]); in the assay with IFN-γ (setting [8]); in assay [1] (setting [9])) was 0.1 to 1 µM in each case.

As to `COC(=O)c1c(-c2ccccc2Cl)noc1-c1cnn(-c2cccc(F)c2)c1C(F)(F)F` [Example I-95, methyl 3-(2-chlorophenyl)-5-(1-(3-fluorophenyl)-5-(trifluoromethyl)-1H-pyrazol-4-yl)isoxazole-4-carboxylate], the IC50 (in the assay with IL-17FF (setting [7]); in the assay on IFN-γ (setting [8]); in assay [1] (setting [9])) was less than 0.01 µM each time.

`COC(=O)c1c(-c2ccccc2Cl)noc1-c1cnn(-c2cccc(Cl)c2)c1C(F)(F)F` [IB-71, methyl 3-(2-chlorophenyl)-5-(1-(3-chlorophenyl)-5-(trifluoromethyl)-1H-pyrazol-4-yl)isoxazole-4-carboxylate]: the IC50 (in the assay on IL-17FF (setting [7]); with IFN-γ (setting [8]); in assay [1] (setting [9])) was less than 0.01 µM in each case.

Turning to `CCOC(=O)c1c(-c2onc(-c3c(F)cccc3Cl)c2C(=O)OC)cnn1-c1ccc(Cl)cc1Cl` [Example I-6, methyl 3-(2-chloro-6-fluorophenyl)-5-(1-(2,4-dichlorophenyl)-5-(ethoxycarbonyl)-1H-pyrazol-4-yl)isoxazole-4-carboxylate], the IC50 (in the assay on IL-17FF (setting [7]); with IFN-γ (setting [8]); in assay [1] (setting [9])) was 1 to 10 µM throughout.

Regarding `Cc1nnc(-c2c(-c3c(F)cccc3Cl)noc2-c2cnn(-c3cccnc3)c2C(F)(F)F)s1` [Example B-21, 3-(2-chloro-6-fluorophenyl)-4-(5-methyl-1,3,4-thiadiazol-2-yl)-5-(1-(pyridin-3-yl)-5-(trifluoromethyl)-1H-pyrazol-4-yl)isoxazole], the IC50 (in the assay with IL-17FF (setting [3]); in the assay on IFN-γ (setting [4]); in assay [1] (setting [5])) was 0.01 to 0.1 µM throughout.

As for `CC(C)OC(=O)c1c(-c2c(F)cccc2Cl)noc1-c1cnn(-c2cccnc2)c1C(F)(F)F` [IB-61, isopropyl 3-(2-chloro-6-fluorophenyl)-5-(1-(pyridin-3-yl)-5-(trifluoromethyl)-1H-pyrazol-4-yl)isoxazole-4-carboxylate], the results for the IC50 (in the assay with IL-17FF (setting [7]); in the assay with IFN-γ (setting [8]); in assay [1] (setting [9])) were 0.01 to 0.1 µM, less than 0.01 µM and 0.01 to 0.1 µM, respectively.

With `Fc1cccc(Cl)c1-c1noc(-c2cnn(-c3cccc(Cl)c3)c2C(F)(F)F)c1-c1ccco1` [Example B-6, 3-(2-chloro-6-fluorophenyl)-5-(1-(3-chlorophenyl)-5-(trifluoromethyl)-1H-pyrazol-4-yl)-4-(furan-2-yl)isoxazole], the IC50 (in the assay with IL-17FF (setting [3]); in the assay on IFN-γ (setting [4]); in assay [1] (setting [5])) was less than 0.01 µM each time.

For `CCOC(=O)c1c(-c2c(F)cccc2Cl)noc1-c1cnn(-c2ccc([N+](=O)[O-])cc2)c1C(F)(F)F` [IB-94, ethyl 3-(2-chloro-6-fluorophenyl)-5-(1-(4-nitrophenyl)-5-(trifluoromethyl)-1H-pyrazol-4-yl)isoxazole-4-carboxylate], the IC50 (in the assay on IL-17FF (setting [7]); in the assay on IFN-γ (setting [8]); in assay [1] (setting [9])) was 1 to 10 µM in each case.

With `Fc1ccc(-n2ncc(-c3onc(-c4c(F)cccc4Cl)c3Br)c2C(F)(F)F)cc1` [IB-28, 4-bromo-3-(2-chloro-6-fluorophenyl)-5-(1-(4-fluorophenyl)-5-(trifluoromethyl)-1H-pyrazol-4-yl)isoxazole], the IC50 (in the assay on IL-17FF (setting [7]); with IFN-γ (setting [8]); in assay [1] (setting [9])) was 0.1 to 1 µM throughout.

In the case of `NS(=O)(=O)c1cccc(-n2ncc(-c3onc(-c4c(F)cccc4Cl)c3-c3nnco3)c2C(F)(F)F)c1` [Example B-17, 3-(4-(3-(2-chloro-6-fluorophenyl)-4-(1,3,4-oxadiazol-2-yl)isoxazol-5-yl)-5-(trifluoromethyl)-1H-pyrazol-1-yl)benzenesulfonamide], the IC50 (with IL-17FF (setting [3]); with IFN-γ (setting [4]); in assay [1] (setting [5])) was 1 to 10 µM throughout.

On to `Fc1cccc(Cl)c1-c1noc(-c2cnn(-c3cccc(Cl)c3)c2C(F)(F)F)c1-c1nncs1` [Example B-8, 3-(2-chloro-6-fluorophenyl)-5-(1-(3-chlorophenyl)-5-(trifluoromethyl)-1H-pyrazol-4-yl)-4-(1,3,4-thiadiazol-2-yl)isoxazole], for which the IC50 (in the assay with IL-17FF (setting [3]); in the assay on IFN-γ (setting [4]); in assay [1] (setting [5])) was less than 0.01 µM each time.

For the molecule `O=C(c1c(-c2c(F)cccc2Cl)noc1-c1cnn(-c2ccccc2Cl)c1C(F)(F)F)N1CCCO1` [IB-49, (3-(2-chloro-6-fluorophenyl)-5-(1-(2-chlorophenyl)-5-(trifluoromethyl)-1H-pyrazol-4-yl)isoxazol-4-yl)(isoxazolidin-2-yl)methanone], the IC50 with IL-17FF (setting [7]) was in the range of 0.1 to 1 µM; in the assay on IFN-γ (setting [8]), 1 to 10 µM; in assay [1] (setting [9]), 1 to 10 µM.

As to `Cc1nnc(-c2c(-c3c(F)cccc3Cl)noc2-c2cnn(-c3ccccc3Cl)c2C(F)(F)F)o1` [Example B-18, 2-(3-(2-chloro-6-fluorophenyl)-5-(1-(2-chlorophenyl)-5-(trifluoromethyl)-1H-pyrazol-4-yl)isoxazol-4-yl)-5-methyl-1,3,4-oxadiazole], the IC50 (in the assay with IL-17FF (setting [3]); with IFN-γ (setting [4]); in assay [1] (setting [5])) was 1 to 10 µM each time.
